From ChEMBL document CHEMBL5385971, “Identification of novel phenylalanine derivatives bearing a hydroxamic acid moiety as potent quorum sensing inhibitors” (RSC Med Chem, 2024) come the findings set out here.

The source made the active and inactive calls. No cut-off for these calls is given here. Bounds are passed on as bounds.

Assay [1] is described as follows: Inhibition of quorum sensing system in Pseudomonas aeruginosa transfected with lasB-gfp incubated for 20 hrs by fluorescence based multilabel plate reader analysis.
For assay [2], the system named is Pseudomonas aeruginosa. In words: Growth inhibition of Pseudomonas aeruginosa transfected with lasB-gfp. Type of assay: functional, organism-based.
Assay [3] deals with Chromobacterium violaceum. The assay can be described thus: Inhibition of Chromobacterium violaceum ATCC 31532 quorum sensing receptor CviR at 30 uM incubated for 24 hrs by absorbance based microplate reader analysis relative to control.
Assay [4] concerns Pseudomonas aeruginosa. In words: Antibiofilm activity against Pseudomonas aeruginosa PA14 assessed as inhibition of biofilm biomass at 30 uM incubated for 48 hrs by crystal violet staining based analysis relative to control. Format: functional.
The nature of assay [5]: Potency index, ratio of 4NPO IC50 to test compound IC50 for inhibition of quorum sensing system in Pseudomonas aeruginosa transfected with lasB-gfp incubated for 20 hrs by fluorescence based multilabel plate reader analysis.
The test system of assay [6] is Chromobacterium violaceum. The assay can be described thus: Inhibition of Chromobacterium violaceum ATCC 31532 quorum sensing receptor CviR assessed as fold change at 30 uM incubated for 24 hrs by absorbance based microplate reader analysis relative to 4NPO.

`O=C(N[C@@H](Cc1ccccc1)C(=O)NO)c1ccc(COc2ccccc2)cc1` came in with a concentration for half-maximal inhibition (IC50) in assay [1] of 83.5 µM. Also, the “growth inhibition (GI)” value in the assay on Pseudomonas aeruginosa [2] was “inactive”. Besides, in assay [3], the inhibition worked out at 11%. Moreover, the inhibition at 30 µM with Pseudomonas aeruginosa [4] turned out to be 20%.

The compound `O=C(N[C@@H](Cc1ccccc1)C(=O)NO)c1ccc2ccccc2n1` gave an IC50 in assay [1] of 50.2 µM. The “growth inhibition (GI)” value in the assay on Pseudomonas aeruginosa [2] was “inactive”. Further, the inhibition in assay [3] is less than 1%. Also, the inhibition at 30 µM in the assay on Pseudomonas aeruginosa [4] is less than 1%.

`O=C(N[C@@H](Cc1ccccc1)C(=O)NO)c1cc(Cl)ccc1F` returned a concentration for half-maximal inhibition (IC50) in assay [1] of 10 µM. Also, in the assay with Pseudomonas aeruginosa [2], the “growth inhibition (GI)” value is “inactive”. The compound further registered an inhibition in assay [3] of 58%. For the same compound, in the assay on Pseudomonas aeruginosa [4], the inhibition at 30 µM is 40%.

`O=C(Nc1ccccc1)c1ccc(C(=O)N[C@@H](Cc2ccccc2)C(=O)NO)cc1` returned an IC50 in assay [1] of 92.3 µM. In addition, in the assay on Pseudomonas aeruginosa [2], the “growth inhibition (GI)” value was “inactive”. In assay [3], this compound displayed an inhibition of less than 1%. Besides, the inhibition at 30 µM in the assay on Pseudomonas aeruginosa [4] was 11%.

With `O=C(Nc1ccc(Cl)cc1)c1ccc(C(=O)N[C@@H](Cc2ccccc2)C(=O)NO)cc1`, the concentration for half-maximal inhibition (IC50) in assay [1] is greater than 100 µM. Besides, the “growth inhibition (GI)” value with Pseudomonas aeruginosa [2] was “inactive”. Besides, the inhibition in assay [3] was less than 1%. Also, the inhibition at 30 µM with Pseudomonas aeruginosa [4] was less than 1%.

Take `Cc1ccc(S(=O)(=O)Nc2ccc(C(=O)N[C@@H](Cc3ccccc3)C(=O)NO)cc2)cc1`: the Ratio IC50 in assay [5] was 4. In addition, in assay [1], the IC50 turned out to be 7.12 µM. The “growth inhibition (GI)” value in the assay on Pseudomonas aeruginosa [2] is “inactive”. The fold change (FC) in assay [6] is 1.5. The compound further showed an inhibition in assay [3] of 79%. The inhibition at 30 µM in the assay with Pseudomonas aeruginosa [4] was 75%.

In the case of `O=C(N[C@@H](Cc1ccccc1)C(=O)NO)c1ccc(C2CCCCC2)cc1`, half-maximal inhibition in assay [1] (IC50) required 9.44 µM. In the assay on Pseudomonas aeruginosa [2], the “growth inhibition (GI)” value is “inactive”. The compound further had an inhibition in assay [3] of 65%. In addition, in the assay with Pseudomonas aeruginosa [4], the inhibition at 30 µM stood at 55%.

As for `O=C(Nc1ccccc1)Nc1ccc(C(=O)N[C@@H](Cc2ccccc2)C(=O)NO)cc1`, the IC50 in assay [1] was greater than 100 µM. For the same compound, the “growth inhibition (GI)” value in the assay with Pseudomonas aeruginosa [2] is “inactive”. Further, the inhibition in assay [3] was less than 1%. For the same compound, the inhibition at 30 µM in the assay on Pseudomonas aeruginosa [4] was less than 1%.

As for `O=C(N[C@@H](Cc1ccccc1)C(=O)NO)c1ccc(Cl)c(Cl)c1`, the IC50 in assay [1] was greater than 100 µM. The “growth inhibition (GI)” value in the assay with Pseudomonas aeruginosa [2] was “inactive”. The inhibition in assay [3] stood at 35%. In addition, the inhibition at 30 µM in the assay on Pseudomonas aeruginosa [4] is less than 1%.
